Laboratory results published in US11903951B2, “Nasal pharmaceutical compositions with a porous excipient” (M et P Pharma AG, priority 2016, dated 2024).

Assays:
[1] = Solubility of testosterone in different oils; format: physicochemical
[2] = Time for complete dissolving of the maximally soluble amount of testosterone in different oils; settings: vortex mixer and shaker at 1000 rpm
Description: The adsorption ability of the SYLOID® particles was investigated by mixing SYLOID® 244FP, XDP3050, and XDP6035 with castor oil, linalool, TRANSCUTOL®, and CAPRYOL™. The maximally soluble amount of testosterone (under the conditions tested) was dissolved in 2.5 g of each oil using a vortex mixer and shaker at 1000 rpm.

## C[C@]12CC[C@H]3[C@@H](CCC4=CC(=O)CC[C@@]43C)[C@@H]1CC[C@@H]2O [testosterone]
[1]; CAPRYOL PGMC
  Solubility from oil: 6.0%
[1]; TRANSCUTOL HP
  Solubility from oil: 6.5%
[1]; linalool
  Solubility from oil: 12.5%
[2]; 0.10 g testosterone in 2.5 g castor oil
  Time of solubility (complete dissolving): >300 min
[2]; 0.15 g testosterone in 2.5 g CAPRYOL
  Time of solubility (complete dissolving): ~60 min
[2]; 0.16 g testosterone in 2.5 g TRANSCUTOL
  Time of solubility (complete dissolving): ~5 min
[2]; 0.31 g testosterone in 2.5 g linalool
  Time of solubility (complete dissolving): 15 to 20 min
